Like-named read-outs stand apart in the source and are kept apart here.
Columns and labels:
Assay type in all cases: biochemical
Cathepsin S = Cathepsin S (Homo sapiens, UniProt P25774); test: Cathepsin S inhibition, fluorogenic peptide substrate kinetic assay;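 note: cleavage rate of a coumarin-labelled peptide substrate (50 µM) read as fluorescence increase at Ex 380 nm and Em 450 nm, relative to inhibitor-free control reactions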
Cathepsin K = biological target: T1, Cathepsin K (Homo sapiens, UniProt P43235); test: Cathepsin K inhibition, fluorogenic peptide substrate kinetic assay (selectivity); conditions: ratio of cathepsin K inhibition constant to cathepsin S inhibition constant
T1 sequence (P43235 115-329): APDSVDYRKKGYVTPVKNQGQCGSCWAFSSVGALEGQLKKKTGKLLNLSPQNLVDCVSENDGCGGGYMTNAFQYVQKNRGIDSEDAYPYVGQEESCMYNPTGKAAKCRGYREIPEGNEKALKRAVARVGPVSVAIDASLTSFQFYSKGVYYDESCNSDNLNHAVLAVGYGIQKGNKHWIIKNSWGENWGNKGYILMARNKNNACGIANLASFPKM

Cathepsin L = Cathepsin L (Homo sapiens, UniProt P07711); test: Cathepsin L inhibition, fluorogenic peptide substrate kinetic assay (selectivity); conditions: ratio of cathepsin L inhibition constant to cathepsin S inhibition constant
Cathepsin L, sequence (P07711 114-333, species assumed): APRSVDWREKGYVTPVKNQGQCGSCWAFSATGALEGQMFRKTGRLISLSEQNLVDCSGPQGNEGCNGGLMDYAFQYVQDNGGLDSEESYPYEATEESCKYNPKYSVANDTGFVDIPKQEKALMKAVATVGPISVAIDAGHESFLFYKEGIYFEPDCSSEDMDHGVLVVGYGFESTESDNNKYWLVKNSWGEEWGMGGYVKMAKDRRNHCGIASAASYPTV

Cathepsin B = Cathepsin B (Homo sapiens, UniProt P07858); test: Cathepsin B inhibition, fluorogenic peptide substrate kinetic assay (selectivity); conditions: ratio of cathepsin B inhibition constant to cathepsin S inhibition constant;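 note: value is the cathepsin B inhibition constant divided by the cathepsin S one, each from kinetic fluorescence readings (ex 380 nm, em 450 nm) of a 10 µM coumarin peptide substrate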
[1] = Cathepsin S inhibition constant, pH5.5, 20 minutes preincubation at room temperature, read-out: Ki Cat. S

Cathepsin S, sequence (P25774 115-331, species assumed): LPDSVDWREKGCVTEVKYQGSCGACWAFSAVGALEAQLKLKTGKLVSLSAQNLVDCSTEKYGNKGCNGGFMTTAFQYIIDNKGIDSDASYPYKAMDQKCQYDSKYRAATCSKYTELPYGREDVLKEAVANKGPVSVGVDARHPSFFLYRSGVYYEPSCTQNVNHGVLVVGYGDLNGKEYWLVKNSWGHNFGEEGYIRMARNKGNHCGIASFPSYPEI

Ki (Cathepsin S; [1]) [nM] | Selectivity for Cat. S over Cat. K (Cathepsin K) | Selectivity for Cat. S over Cat. L (Cathepsin L) | Selectivity for Cat. S over Cat. B (Cathepsin B) | Ki (Cathepsin S) [nM] | Structure (SMILES)
< 100 | ++ (++, >100) | + (+, >10) | ++ (++, >100) | – | O=C(NCCNc1ccc(F)cc1)[C@H](CC1CCCCC1)NC(=O)N1CCOCC1 [Example 3, Morpholine-4-carboxylic acid {2-cyclohexyl-1-(S)-[2-(4-fluoro-phenylamino)-ethylcarbamoyl]-ethyl}-amide]
< 100 | ++ (++, >100) | + (+, >10) | +++ (+++, >1000) | – | COc1ccc(NCCNC(=O)[C@H](CC2CCCCC2)NC(=O)N2CCOCC2)cc1 [Example 4, Morpholine-4-carboxylic acid {2-cyclohexyl-1-(S)-[2-(4-methoxy-phenylamino)-ethylcarbamoyl]-ethyl}-amide]
1000 to 10000 | + (+, >10) | + (+, >10) | + (+, >10) | – | O=C(NCCNc1ccc(F)cc1)O[C@@H](CC1CCCCC1)C(=O)N1CCOCC1 [Example 5, [2-(4-Fluoro-phenylamino)-ethyl]-carbamic acid 1-(S)-cyclohexylmethyl-2-morpholin-4-yl-2-oxo-ethyl ester]
– | + (+, >10) | + (+, >10) | + (+, >10) | 1000 to 10000 | O=C(NCCNc1ccc(F)cc1)[C@@H](CC(=O)N1CCOCC1)CC1CCCCC1 [Example 6, 2-(R)-Cyclohexylmethyl-N-[2-(4-fluoro-phenylamino)-ethyl]-4-morpholin-4-yl-4-oxo-butyramide]

The next lines start with the molecule.

Structure (SMILES) | Ki (Cathepsin S; [1]) [nM] | Selectivity for Cat. S over Cat. K (Cathepsin K) | Selectivity for Cat. S over Cat. L (Cathepsin L) | Selectivity for Cat. S over Cat. B (Cathepsin B) | Ki (Cathepsin S) [nM]
O=C(NCCN1CCc2cc(F)ccc21)[C@H](CC1CCCCC1)NC(=O)N1CCOCC1 [Example 2, Morpholine-4-carboxylic acid {2-cyclohexyl-1-(S)-[2-(5-fluoro-2,3-dihydro-indol-1-yl)-ethylcarbamoyl]-ethyl}-amide] | < 100 | ++ (++, >100) | + (+, >10) | +++ (+++, >1000) | –
CC1(C)CN([C@H]2COC[C@@H]2NC(=O)O[C@@H](CC2CCCCC2)C(=O)N2CCOCC2)c2ccc(F)cc21 [Example 7, [4-(R)-(5-Fluoro-3,3-dimethyl-2,3-dihydro-indol-1-yl)-tetrahydro-furan-3-(R)-yl]-carbamic acid 1-(S)-cyclohexylmethyl-2-morpholin-4-yl-2-oxo-ethyl ester] | 1000 to 10000 | + (+, >10) | + (+, >10) | + (+, >10) | –
C=CC[C@H](CC(=O)N1CCOCC1)C(=O)N[C@H](CNc1ccc(OC(F)(F)F)cc1)C(C)C [Example 47, 2-(R)-(2-Morpholin-4-yl-2-oxo-ethyl)-pent-4-enoic acid {2-methyl-1-(S)-[(4-trifluoromethoxy-phenylamino)-methyl]-propyl}-amide] | 100 to 1000 | – | + (+, >10) | + (+, >10) | –
CC(C)[C@@H](CNc1ccc(OC(F)(F)F)cc1)NC(=O)[C@H](CC(=O)N1CCOCC1)c1ccc(S(C)(=O)=O)cc1 [Example 71, 2-(R)-(4-methanesulfonyl-phenyl)-N-{2-methyl-1-(S)-[(4-trifluoromethoxy-phenylamino)-methyl]-propyl}-4-morpholin-4-yl-4-oxo-butyramide] | 1000 to 10000 | – | ++ (++, >100) | + (+, >10) | –
C[C@@H](CNc1ccc(OC(F)F)cc1)NC(=O)O[C@@H](CC(C)(C)C)C(=O)N1CCOCC1 [Example 85, [2-(4-Difluoromethoxy-phenylamino)-1-(S)-methyl-ethyl]-carbamic acid 3,3-dimethyl-1-(S)-(morpholine-4-carbonyl)-butyl ester] | 1000 to 10000 | – | + (+, >10) | + (+, >10) | –

Source: US7732449B2, “Inhibitors of cathepsin S” (IRM LLC, priority 2003, dated 2010)
